Values quoted from earlier work in publication PMC4654502, “Early Gelatinase Activity Is Not a Determinant of Long-Term Recovery after Traumatic Brain Injury in the Immature Mouse” (PLoS ONE, 2015).

Test system: TBI in adult mice
Conditions: equivalent dose; cited from earlier work

O=S(=O)(CC1CS1)c1ccc(Oc2ccc(O)cc2)cc1 (stereo not shown) [p-OH SB-3CT]
functional and neuropathological outcomes after severe TBI in adult mice: treatment-dependent improvement in functional and neuropathological outcomes
